In ChEMBL document CHEMBL4680228 (Eur J Med Chem, 2020):
Calls of active or inactive are those of the source. No cut-off for these calls is given here.

Assays:
[1] = molecular target: T1, von Hippel-Lindau disease tumor suppressor/ALK tyrosine kinase receptor/Nucleophosmin (Homo sapiens, UniProt Q9UM73+P06748+P40337); test: Protac activity at VHL/NPM-ALK fusion protein in human SR cells assessed as degradation of ALK at 100 nM; assay type: cell-based; conditions: TDE = time-dependent effect
Target sequence in this assay (P06748 whole entry partner, the tested form may be a part): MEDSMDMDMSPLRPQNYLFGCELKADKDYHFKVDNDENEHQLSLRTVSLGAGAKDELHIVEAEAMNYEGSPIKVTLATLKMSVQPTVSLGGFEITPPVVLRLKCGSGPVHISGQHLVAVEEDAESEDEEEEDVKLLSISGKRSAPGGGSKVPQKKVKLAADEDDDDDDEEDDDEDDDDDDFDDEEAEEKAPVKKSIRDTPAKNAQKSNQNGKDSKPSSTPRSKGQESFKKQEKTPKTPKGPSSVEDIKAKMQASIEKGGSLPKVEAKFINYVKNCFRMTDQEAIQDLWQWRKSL
Target sequence in this assay (P40337 whole entry partner, the tested form may be a part): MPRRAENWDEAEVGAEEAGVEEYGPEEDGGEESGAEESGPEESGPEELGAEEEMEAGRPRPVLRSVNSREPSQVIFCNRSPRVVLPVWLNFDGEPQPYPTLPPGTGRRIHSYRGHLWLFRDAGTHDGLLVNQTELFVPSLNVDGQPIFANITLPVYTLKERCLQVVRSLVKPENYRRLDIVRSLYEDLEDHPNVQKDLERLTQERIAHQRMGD
Target sequence in this assay (Q9UM73 19-1620 limits assumed): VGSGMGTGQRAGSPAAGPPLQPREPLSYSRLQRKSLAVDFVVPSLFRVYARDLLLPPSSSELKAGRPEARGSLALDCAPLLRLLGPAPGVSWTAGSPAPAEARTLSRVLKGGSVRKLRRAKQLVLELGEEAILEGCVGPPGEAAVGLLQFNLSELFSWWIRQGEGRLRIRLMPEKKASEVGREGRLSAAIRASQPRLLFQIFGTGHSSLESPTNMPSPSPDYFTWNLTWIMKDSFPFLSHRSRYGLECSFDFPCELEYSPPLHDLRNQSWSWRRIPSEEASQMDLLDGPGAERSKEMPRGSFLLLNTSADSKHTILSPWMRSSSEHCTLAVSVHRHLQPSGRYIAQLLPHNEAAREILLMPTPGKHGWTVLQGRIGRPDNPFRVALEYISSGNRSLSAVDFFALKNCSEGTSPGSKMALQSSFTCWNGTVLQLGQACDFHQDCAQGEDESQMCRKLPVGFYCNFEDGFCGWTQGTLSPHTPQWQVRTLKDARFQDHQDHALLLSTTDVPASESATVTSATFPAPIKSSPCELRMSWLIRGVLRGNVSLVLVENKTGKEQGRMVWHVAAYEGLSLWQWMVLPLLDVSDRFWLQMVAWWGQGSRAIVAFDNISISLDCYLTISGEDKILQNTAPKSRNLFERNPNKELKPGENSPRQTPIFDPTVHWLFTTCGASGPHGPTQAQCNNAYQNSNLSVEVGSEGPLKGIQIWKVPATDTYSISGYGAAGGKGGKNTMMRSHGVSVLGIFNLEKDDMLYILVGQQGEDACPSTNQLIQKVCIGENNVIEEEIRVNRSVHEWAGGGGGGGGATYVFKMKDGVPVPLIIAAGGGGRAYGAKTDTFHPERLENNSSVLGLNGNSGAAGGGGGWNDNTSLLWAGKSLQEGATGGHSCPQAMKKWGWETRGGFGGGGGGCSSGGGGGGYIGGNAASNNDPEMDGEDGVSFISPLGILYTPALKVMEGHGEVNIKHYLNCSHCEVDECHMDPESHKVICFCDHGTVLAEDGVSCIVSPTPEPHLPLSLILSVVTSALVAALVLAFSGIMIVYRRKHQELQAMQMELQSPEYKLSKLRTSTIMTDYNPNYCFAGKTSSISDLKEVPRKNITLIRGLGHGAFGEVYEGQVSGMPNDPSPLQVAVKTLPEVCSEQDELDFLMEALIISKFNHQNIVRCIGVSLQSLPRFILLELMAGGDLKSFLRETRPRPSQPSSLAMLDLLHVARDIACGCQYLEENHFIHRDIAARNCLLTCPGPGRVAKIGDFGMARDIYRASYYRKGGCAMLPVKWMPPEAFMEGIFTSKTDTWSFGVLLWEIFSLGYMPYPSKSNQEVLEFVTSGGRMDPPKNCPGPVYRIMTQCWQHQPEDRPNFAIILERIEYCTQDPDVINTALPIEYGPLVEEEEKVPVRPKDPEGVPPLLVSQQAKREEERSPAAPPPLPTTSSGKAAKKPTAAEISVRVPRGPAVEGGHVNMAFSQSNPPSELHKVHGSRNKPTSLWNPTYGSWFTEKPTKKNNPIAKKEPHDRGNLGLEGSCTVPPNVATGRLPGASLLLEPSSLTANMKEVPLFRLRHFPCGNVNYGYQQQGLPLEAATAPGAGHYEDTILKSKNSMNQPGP

[2] = tested on: NCI-H2228; test: Antiproliferative activity against human NCI-H2228 cells expressing EML4-ALK assessed as reduction in cell viability incubated for 72 hrs by CCK8 assay; assay type: functional, cell-based; conditions: NCI-H2228, 72 h
[3] = molecular target: T1, von Hippel-Lindau disease tumor suppressor/ALK tyrosine kinase receptor/Nucleophosmin; test: Protac activity at VHL/NPM-ALK fusion protein in human SR cells assessed as degradation of ALK; assay type: cell-based
[4] = molecular target: von Hippel-Lindau disease tumor suppressor/ALK tyrosine kinase receptor/Echinoderm microtubule-associated protein-like 4 (Homo sapiens, UniProt Q9UM73+Q9HC35+P40337, G1202R); test: Protac activity at VHL/EML4-ALK G1202R mutant fusion protein (unknown origin) expressed in HEK293T cells assessed as induction of ALK degradation by Western blot analysis; assay type: cell-based
[5] = molecular target: von Hippel-Lindau disease tumor suppressor/Proto-oncogene tyrosine-protein kinase ROS (Homo sapiens) (UniProt P08922+P40337); test: Protac activity at VHL/ROS1 in human SR cells assessed as induction of ROS1 degradation; assay type: cell-based
[6] = molecular target: von Hippel-Lindau disease tumor suppressor/Receptor-type tyrosine-protein kinase FLT3 (Homo sapiens) (UniProt P36888+P40337); test: Protac activity at VHL/FLT3 in human SR cells assessed as induction of FLT3 degradation; assay type: cell-based
Chain of von Hippel-Lindau disease tumor suppressor/Receptor-type tyrosine-protein kinase FLT3 (Homo sapiens) (P36888 27-993 limits assumed): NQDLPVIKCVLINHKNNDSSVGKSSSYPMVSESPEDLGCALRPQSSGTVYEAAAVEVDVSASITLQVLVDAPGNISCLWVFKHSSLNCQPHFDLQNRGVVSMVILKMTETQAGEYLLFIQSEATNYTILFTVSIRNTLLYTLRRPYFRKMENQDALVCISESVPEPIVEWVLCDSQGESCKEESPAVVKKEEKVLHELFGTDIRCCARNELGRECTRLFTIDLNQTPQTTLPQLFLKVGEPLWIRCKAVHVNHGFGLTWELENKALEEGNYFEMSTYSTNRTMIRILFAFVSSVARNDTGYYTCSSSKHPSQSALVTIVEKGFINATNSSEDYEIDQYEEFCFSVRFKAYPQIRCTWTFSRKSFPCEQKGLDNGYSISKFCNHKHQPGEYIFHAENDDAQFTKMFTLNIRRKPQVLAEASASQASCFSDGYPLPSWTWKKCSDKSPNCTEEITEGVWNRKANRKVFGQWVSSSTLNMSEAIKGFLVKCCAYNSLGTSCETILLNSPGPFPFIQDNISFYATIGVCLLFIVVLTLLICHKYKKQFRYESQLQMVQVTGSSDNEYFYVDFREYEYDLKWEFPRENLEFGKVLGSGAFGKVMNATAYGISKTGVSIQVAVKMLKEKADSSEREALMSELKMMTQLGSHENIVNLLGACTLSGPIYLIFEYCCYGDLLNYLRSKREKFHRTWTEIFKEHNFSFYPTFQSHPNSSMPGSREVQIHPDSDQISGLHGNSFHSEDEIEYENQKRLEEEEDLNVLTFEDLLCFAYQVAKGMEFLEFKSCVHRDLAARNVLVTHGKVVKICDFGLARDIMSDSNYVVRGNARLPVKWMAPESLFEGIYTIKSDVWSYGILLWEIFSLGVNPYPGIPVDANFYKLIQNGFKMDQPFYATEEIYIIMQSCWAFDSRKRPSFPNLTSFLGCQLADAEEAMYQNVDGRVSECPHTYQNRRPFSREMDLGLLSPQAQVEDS
Chain of von Hippel-Lindau disease tumor suppressor/Receptor-type tyrosine-protein kinase FLT3 (Homo sapiens) (P40337 whole entry partner): as the sequence (P40337 whole entry partner, the tested form may be a part) above

[7] = molecular target: von Hippel-Lindau disease tumor suppressor/Cyclin-G-associated kinase (Homo sapiens) (UniProt O14976+P40337); test: Protac activity at VHL/GAK in human SR cells assessed as induction of GAK degradation; assay type: cell-based
[8] = molecular target: T1, von Hippel-Lindau disease tumor suppressor/ALK tyrosine kinase receptor/Nucleophosmin; test: Protac activity at VHL/NPM-ALK fusion protein in human SR cells assessed as degradation of ALK measured after 16 hrs in presence of proteasome inhibitor MG132; assay type: cell-based
Target sequence in this assay (P06748 whole entry partner, the tested form may be a part): as the sequence (P06748 whole entry partner, the tested form may be a part) above
Target sequence in this assay (P40337 whole entry partner, the tested form may be a part): as the sequence (P40337 whole entry partner, the tested form may be a part) above
Target sequence in this assay (Q9UM73 19-1620 limits assumed): as the sequence (Q9UM73 19-1620 limits assumed) above

[9] = tested on: SR; test: Antiproliferative activity against human SR cells assessed as reduction in cell growth; assay type: functional, cell-based
[10] = tested on: NCI-H69; test: Antiproliferative activity against human NCI-H69 cells assessed as inhibition of cell proliferation; assay type: functional, cell-based
[11] = molecular target: T1, von Hippel-Lindau disease tumor suppressor/ALK tyrosine kinase receptor/Nucleophosmin; test: Protac activity at VHL/NPM-ALK fusion protein in human SR cells assessed as reduction in ALK phosphorylation at 10 nM; assay type: cell-based
Target sequence in this assay (P06748 whole entry partner, the tested form may be a part): as the sequence (P06748 whole entry partner, the tested form may be a part) above
Target sequence in this assay (P40337 whole entry partner, the tested form may be a part): as the sequence (P40337 whole entry partner, the tested form may be a part) above
Target sequence in this assay (Q9UM73 19-1620 limits assumed): as the sequence (Q9UM73 19-1620 limits assumed) above

[12] = molecular target: von Hippel-Lindau disease tumor suppressor/Uridine-cytidine kinase 2 (Homo sapiens) (UniProt Q9BZX2+P40337); test: Protac activity at VHL/UCK2 in human SR cells assessed as induction of UCK2 degradation; assay type: cell-based
Chain of von Hippel-Lindau disease tumor suppressor/Uridine-cytidine kinase 2 (Homo sapiens) (P40337 whole entry, looked up, the tested form may be a part): as the sequence (P40337 whole entry partner, the tested form may be a part) above
Chain of von Hippel-Lindau disease tumor suppressor/Uridine-cytidine kinase 2 (Homo sapiens) (Q9BZX2 whole entry, looked up, the tested form may be a part): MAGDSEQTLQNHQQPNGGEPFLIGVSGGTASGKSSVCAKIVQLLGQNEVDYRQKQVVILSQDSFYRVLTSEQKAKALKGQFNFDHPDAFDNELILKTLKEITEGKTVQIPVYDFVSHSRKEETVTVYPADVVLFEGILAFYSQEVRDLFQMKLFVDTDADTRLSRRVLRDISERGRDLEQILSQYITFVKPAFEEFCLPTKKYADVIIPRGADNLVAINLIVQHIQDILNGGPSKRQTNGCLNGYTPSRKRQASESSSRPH

[13] = molecular target: von Hippel-Lindau disease tumor suppressor/ALK tyrosine kinase receptor/Echinoderm microtubule-associated protein-like 4 (Homo sapiens) (UniProt Q9UM73+Q9HC35+P40337); test: Protac activity at VHL/EML4-ALK fusion protein in human NCI-H2228 cells assessed as induction of ALK degradation at 50 to 500 nM; assay type: cell-based; conditions: dose 50-500 nM
[14] = molecular target: EML4-ALK (Homo sapiens, UniProt Q9UM73, G1202R); test: Inhibition of EML4-ALK G1202R mutant fusion protein (unknown origin) expressed in HEK293T cells; assay type: cell-based
[15] = molecular target: von Hippel-Lindau disease tumor suppressor/ALK tyrosine kinase receptor/Echinoderm microtubule-associated protein-like 4 (Homo sapiens, UniProt P40337+Q9HC35+Q9UM73, G1202R)
[16] = molecular target: von Hippel-Lindau disease tumor suppressor/Aurora kinase A (Homo sapiens) (UniProt O14965+P40337); test: Protac activity at VHL/Aurora A in human SR cells assessed as induction of Aurora A degradation; assay type: cell-based
Chain of von Hippel-Lindau disease tumor suppressor/Aurora kinase A (Homo sapiens) (O14965 whole entry, looked up, the tested form may be a part): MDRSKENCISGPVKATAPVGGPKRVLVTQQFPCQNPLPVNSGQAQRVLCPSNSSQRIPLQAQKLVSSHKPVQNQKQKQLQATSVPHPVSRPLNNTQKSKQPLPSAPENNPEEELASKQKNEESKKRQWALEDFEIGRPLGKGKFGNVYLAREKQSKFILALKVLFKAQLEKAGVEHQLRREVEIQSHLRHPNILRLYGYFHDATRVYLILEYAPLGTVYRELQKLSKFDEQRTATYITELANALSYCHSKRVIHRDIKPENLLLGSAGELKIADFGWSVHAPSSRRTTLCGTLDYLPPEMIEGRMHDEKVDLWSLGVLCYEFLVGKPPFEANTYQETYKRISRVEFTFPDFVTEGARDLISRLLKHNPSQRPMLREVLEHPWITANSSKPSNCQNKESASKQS
Chain of von Hippel-Lindau disease tumor suppressor/Aurora kinase A (Homo sapiens) (P40337 whole entry, looked up, the tested form may be a part): as the sequence (P40337 whole entry partner, the tested form may be a part) above

[17] = molecular target: T1, von Hippel-Lindau disease tumor suppressor/ALK tyrosine kinase receptor/Nucleophosmin; test: Protac activity at VHL/NPM-ALK fusion protein in human SR cells assessed as reduction in STAT3 phosphorylation at 1 to 500 nM; assay type: cell-based; conditions: dose 1-500 nM
Target sequence in this assay (P06748 whole entry partner, the tested form may be a part): as the sequence (P06748 whole entry partner, the tested form may be a part) above
Target sequence in this assay (P40337 whole entry partner, the tested form may be a part): as the sequence (P40337 whole entry partner, the tested form may be a part) above
Target sequence in this assay (Q9UM73 19-1620 limits assumed): as the sequence (Q9UM73 19-1620 limits assumed) above

[18] = molecular target: T1, von Hippel-Lindau disease tumor suppressor/ALK tyrosine kinase receptor/Nucleophosmin; test: Protac activity at VHL/NPM-ALK fusion protein in human SR cells assessed as induction of ALK degradation 100 nM treated for 24 hrs followed by compound washout and measured after 24 to 48 hrs by Western blot analysis; assay type: cell-based
Target sequence in this assay (P06748 whole entry partner, the tested form may be a part): as the sequence (P06748 whole entry partner, the tested form may be a part) above
Target sequence in this assay (P40337 whole entry partner, the tested form may be a part): as the sequence (P40337 whole entry partner, the tested form may be a part) above
Target sequence in this assay (Q9UM73 19-1620 limits assumed): as the sequence (Q9UM73 19-1620 limits assumed) above

[19] = cells; conditions: Homo sapiens, NCI-H1688
Description: Antiproliferative activity against human NCI-H1688 cells assessed as inhibition of cell proliferation

[20] = molecular target: T1, von Hippel-Lindau disease tumor suppressor/ALK tyrosine kinase receptor/Nucleophosmin; test: Protac activity at VHL/NPM-ALK fusion protein in human SR cells assessed as degradation of ALK measured after 16 hrs in presence of proteasome inhibitor MLN4924; assay type: cell-based
Target sequence in this assay (P06748 whole entry partner, the tested form may be a part): as the sequence (P06748 whole entry partner, the tested form may be a part) above
Target sequence in this assay (P40337 whole entry partner, the tested form may be a part): as the sequence (P40337 whole entry partner, the tested form may be a part) above
Target sequence in this assay (Q9UM73 19-1620 limits assumed): as the sequence (Q9UM73 19-1620 limits assumed) above

[21] = molecular target: von Hippel-Lindau disease tumor suppressor/Insulin-like growth factor 1 receptor (Homo sapiens) (UniProt P08069+P40337); test: Protac activity at VHL/IGF1R in human SR cells assessed as induction of IGF1R degradation; assay type: cell-based
[22] = molecular target: T1, von Hippel-Lindau disease tumor suppressor/ALK tyrosine kinase receptor/Nucleophosmin; test: Protac activity at VHL/NPM-ALK fusion protein in human SR cells assessed as degradation of ALK at 100 nM measured after 24 hrs; assay type: cell-based
[23] = molecular target: T1, von Hippel-Lindau disease tumor suppressor/ALK tyrosine kinase receptor/Nucleophosmin; test: Protac activity at VHL/NPM-ALK fusion protein in human SR cells assessed as reduction in ALK phosphorylation at 50 nM; assay type: cell-based; parameters: scale not given: the % may be the effect or the level left

## COc1cc(N2CCC(NC(=O)CCCCCCCCCC(=O)N[C@H](C(=O)N3C[C@H](O)C[C@H]3C(=O)NCc3ccc(-c4scnc4C)cc3)C(C)(C)C)CC2)ccc1Nc1ncc(Cl)c(Nc2ccccc2P(C)(C)=O)n1
[1]
  Activity: Tde
[2]
  IC50: 0.046 µM
[3]
  DC50: 0.007 µM
[4]
  DC50: < 0.2 µM
[5]
  Activity: inactive
[6]
  Activity: inactive
[7]
  Activity: inactive
[8]
  Activity: inactive
[9]
  IC50: 0.0017 µM
[10]
  IC50: 0.799 µM
[11]
  Activity: Active
[12]
  Activity: inactive
[13]
  Activity: Active
[14]
  IC50: 0.146 µM
[15]
  IC50: 0.166 µM
[16]
  Activity: inactive
[17]
  Activity: Active
[18]
  Activity: Active
[19]
  IC50: 0.259 µM
[20]
  Activity: inactive
[21]
  Activity: inactive

## COc1cc(N2CCC(NC(=O)CCCCCCCCCC(=O)N[C@H](C(=O)N3C[C@@H](O)C[C@H]3C(=O)NCc3ccc(-c4scnc4C)cc3)C(C)(C)C)CC2)ccc1Nc1ncc(Cl)c(Nc2ccccc2P(C)(C)=O)n1
[2]
  IC50: 0.114 µM
[22]
  Activity: inactive
[23]
  Activity: 100%
[9]
  IC50: 0.0055 µM
[15]
  IC50: 0.608 µM
[17]
  Activity: Active
